# Results as given in US20150374725A1, “METHODS AND COMPOSITIONS FOR TREATING AND PREVENTING INTESTINAL INJURY AND DISEASES RELATED TO TIGHT JUNCTION DYSFUNCTION” (PRELIEF INC., priority 2013, published 2015).
# How the values were obtained:
# Caco-2 cells [1] = assay: Baseline mannitol flux across Caco-2 monolayers on transwell inserts; type: cell-based, human; conditions: increasing concentrations of CGP, FIG. 1
# Procedure: Experiments were conducted on Caco-2 cells, a line of heterogeneous human epithelial colorectal adenocarcinoma cells derived from a colorectal carcinoma and grown on transwell permeable inserts. Despite their origins, in culture these cells express the characteristics of small intestinal enterocytes upon prolonged culture (C. Jumarie et al. J Cell. Physiol. 149: 24-33, (1991)). They are widely used as a model of transepithelial transport in the small intestine, and are considered a model for celiac disease (G. Iacomino et al. J Agric Food Chem. 6; 61(5):1088-962013 (2013); I. Caputo et al. PLoS One. 7(9):e45209 (2012); T. Rauhavirta et al. J Clin Immunol.; 33(1):134-42 (2013)).
# The TEER results are verified by measuring the flux of mannitol, a polyhydroxy alcohol, across the cell monolayer. Mannitol flux is exclusively by the paracellular route, so that its movement is inversely proportional to the tightness of the tight junctions. Flux is measured in both apical to basolateral and basolateral to apical directions. The rate of flux is used to calculate a permeability coefficient for the monolayers. […]
# Baseline values were obtained for each of these parameters in unstimulated cells in the presence and absence of increasing concentrations of CGP. The time course of TEER development, as well as the appropriate concentration of CGP, was determined experimentally. […]
# Caco-2 cells [2] = assay: TEER during cytomix treatment; type: cell-based, human; conditions: FIG. 8
# Procedure: The effect of exogenous cytokines was measured for each parameter in the presence and absence of CGP. Both hypoxia and celiac disease are characterized by the release of cytokines by cells of the immune system. These inflammatory mediators increase monolayer permeability (M. Bayardo et al. Clin Exp Immunol.; 168(1):95-104 (2012)). Cells were grown to confluence on transwell inserts, then challenged with a mixture of the cytokines TNFα (tumor necrosis factor alpha), ILβ (interleukin beta), and IFγ (interferon gamma) (“cytomix”) in the presence or absence of increasing concentrations of CGP. At the appropriate time points, apical to basolateral mannitol flux was measured. TEER, E-Cadherin expression and media concentrations of S1P were measured in separate experiments. […] Exogenous cytokines may decrease TEER and increase mannitol flux.
# Cytokines are a category of small proteins that are important in cell-cell signaling. There are many types and functions of cytokines. Three of the cytokines, TNFα (tumor necrosis factor alpha), ILβ (interleukin beta), and IFγ (interferon gamma) are involved in cell signaling during inflammation. […] First, neutrophils and other cells mediating the immune response are recruited to ischemic tissue. Second, the intestinal damage of celiac disease is dependent on inflammation. […]
# Caco-2 cells [3] = assay: Apical to basolateral [14C]mannitol flux during hypoxia; type: cell-based, human; conditions: FIG. 5
# Procedure: (§1) The effect of hypoxia on transepithelial permeability was measured for each parameter in the presence and absence of CGP. Cells were grown to confluence in normoxic conditions on transwell inserts, then transferred to a hypoxia chamber (95% N2/5% CO2) and media was changed to one sparged with 95% N2/5% CO2 and containing no glucose. Under these conditions, which simulate ischemia, the partial pressure of residual oxygen is less than 25 mm Hg (6%). Control wells contained only media; the remaining wells contained increasing concentrations of calcium glycerophosphate. TEER and mannitol flux were measured in the hypoxia chamber. E-Cadherin expression or S1P determination was determined in room air using samples prepared in the hypoxia chamber. Hypoxia may decrease TEER and S1P, increase both apical to basolateral and basolateral to apical mannitol flux without changing E-cadherin expression. These effects may be mitigated by CGP.
# Hypoxia/ischemia is a state of diminished oxygen and nutrient supply such that cellular demands are not met. […] It was hypothesized that the increased transepithelial permeability is the consequence of intestinal hypoxia (itself a consequence of diversion of blood flow from the gut during heavy exercise), and that the permeability might be alleviated by CGP treatment. […]
# Caco-2 cells [4] = assay: TEER during hypoxia; type: cell-based, human; conditions: FIG. 6
# Procedure: as §1
# Hypoxia/ischemia is a state of diminished oxygen and nutrient supply such that cellular demands are not met. […]
# For these studies, cells were grown on transwells until confluent, as measured by TEER values of […]. As there is some variability in baseline TEER, all data have been expressed as a % of baseline TEER. […]
# Caco-2 cells [5] = assay: Mannitol Flux Assay under ischemia-mimicking conditions (no glucose, 1% oxygen); type: cell-based, human
# Procedure: Mannitol Flux Assay was performed as follows. At the start of the experiment (time 0), the media on the cells was changed to one containing no glucose and no fetal calf serum, and the environment was changed from 95% […]/5% CO2, to 1% oxygen, 5% CO2 and 94% nitrogen. These conditions mimic ischemia (no food, no oxygen).
# It was observed that cells responded to the ischemia conditions by letting go of non-essential functions, like maintaining tight junctions. It appears that by adding CGP, the cells were able to retain tight junction integrity for a longer period of time.
# Specifically, Table 2 and FIG. 4 show the percentage increase in mannitol penetration at two and four hours after CGP administration. The movement of mannitol is inversely proportional to the tightness of the tight junctions. It can be seen that the magnitude of the increase in tightness of the tight junctions (or decrease in mannitol flux) was proportional to the concentration of CGP in the media. While it is possible that the cells are merely using the glycerol phosphate to replace glucose, this is extremely unlikely, as the effect persists even at 0.000001 molar CGP. The usual glucose concentration in the media is around 10 mM, ten times greater than the highest CGP concentration, and 10,000 times greater than the lowest concentration of CGP.
# Caco-2 cells [6] = assay: Transepithelial mannitol flux induced by cytomix; type: cell-based, human; conditions: cytomix plus CGP, FIG. 7
# Procedure: The effect of exogenous cytokines was measured for each parameter in the presence and absence of CGP. […] Cells were grown to confluence on transwell inserts, then challenged with a mixture of the cytokines TNFα (tumor necrosis factor alpha), ILβ (interleukin beta), and IFγ (interferon gamma) (“cytomix”) in the presence or absence of increasing concentrations of CGP. At the appropriate time points, apical to basolateral mannitol flux was measured. TEER, E-Cadherin expression and media concentrations of S1P were measured in separate experiments.
# Caco-2 cells [7] = assay: Baseline sphingosine 1-phosphate in media by ELISA; type: cell-based, human; conditions: 24 hours incubation, increasing concentrations of CGP, FIG. 3
# Procedure: It is believed that CGP elevates S1P concentrations by inhibiting dephosphorylation. S1P concentrations are measured in the media of Caco-2 cells using a commercially available ELISA kit (e.g., Echelon Catalog # K-1900). The S1P concentrations are measured in the media of Caco-2 cells in the presence and absence of CGP. Cells were incubated for 24 hours in the presence of increasing concentrations of CGP. The media was removed and assayed for […] by enzyme-linked immunoassay (ELISA).
# Caco-2 cells [8] = assay: Baseline E-cadherin expression; type: cell-based, human
# Procedure: (3) E-Cadherin Expression:
# E-cadherin is the principle protein of tight junctions. The level of E-cadherin is measured in homogenized Caco-2 cells by western blot analysis using commercially available antibodies. Since it is possible that E-cadherin might be expressed as a protein, but sequestered away from the cell membrane, surface E-cadherin is also measured using either flow cytometry or fluorescent microscopy. The ratio of surface to total E-cadherin is calculated. The expression levels of E-cadherin are measured in Caco-2 cells in the presence and absence of CGP. The expression levels of other proteins of tight junctions in Caco-2 cells in the presence or absence of CGP can also be measured using methods known in the art in view of the present disclosure.
# Caco-2 cells [9] = assay: Baseline trans-epithelial electrical resistance (TEER); type: cell-based, human
# Solubility in water = type: physicochemical
# cultured enterocytes = conditions: cited from earlier work
compound,measurement,setting,value
"O=P([O-])([O-])OCC(O)CO.[Ca+2] (centres unmarked) [CGP, 1,2,3-propanetriol, mono(dihydrogen phosphate) calcium salt (1:1)]",effect on baseline mannitol flux across the barrier,Caco-2 cells [1],no significant effect
same,CGP effect on TEER,Caco-2 cells [2]; 24 hours,all CGP effect was lost
same,TEER versus cytomix alone and control,"Caco-2 cells [2]; ten hours, all CGP treated groups except 1 μM",significantly greater than cytomix alone and not different from control
same,time dependence of the effect on hypoxia induced mannitol flux,Caco-2 cells [3],diminished by four hours and absent by five hours
same,effect on hypoxia induced mannitol flux,Caco-2 cells [3]; concentration dependent,significantly reduced
same,effect on TEER during hypoxia (% of baseline TEER),Caco-2 cells [4],preserved TEER in a concentration dependent manner
same,time dependence of the effect on TEER during hypoxia,Caco-2 cells [4],by five hours there was no longer a discernible effect
same,"mannitol penetration, Disintegrations Per Minute","Caco-2 cells [5]; CGP 0.000001 M, 2 hours",77.04 Disintegrations Per Minute
same,"mannitol penetration, Disintegrations Per Minute","Caco-2 cells [5]; CGP 0.000001 M, 4 hours",275.0632 Disintegrations Per Minute
same,"mannitol penetration, Disintegrations Per Minute","Caco-2 cells [5]; CGP 0.00001 M, 2 hours",67.95 Disintegrations Per Minute
same,"mannitol penetration, Disintegrations Per Minute","Caco-2 cells [5]; CGP 0.00001 M, 4 hours",195.9237 Disintegrations Per Minute
same,"mannitol penetration, Disintegrations Per Minute","Caco-2 cells [5]; CGP 0.0001 M, 2 hours",50.47 Disintegrations Per Minute
same,"mannitol penetration, Disintegrations Per Minute","Caco-2 cells [5]; CGP 0.0001 M, 4 hours",188.7996 Disintegrations Per Minute
same,"mannitol penetration, Disintegrations Per Minute","Caco-2 cells [5]; CGP 0.001 M, 2 hours",23.11 Disintegrations Per Minute
same,"mannitol penetration, Disintegrations Per Minute","Caco-2 cells [5]; CGP 0.001 M, 4 hours",150.2845 Disintegrations Per Minute
same,lowest CGP concentration at which the effect on mannitol penetration persists,"Caco-2 cells [5]; ischemia-mimicking conditions, Table 2 and FIG. 4",1000 nM
same,effect on cytomix-induced increase in mannitol permeability,Caco-2 cells [6],delayed the permeability increase in a concentration-dependent manner
same,effect on sphingosine 1-phosphate concentrations in the media,Caco-2 cells [7],does not appear to have any effect
same,effect on E-Cadherin expression,Caco-2 cells [8],"may increase, but most likely does not change"
same,persistence of the CGP effect on baseline TEER,Caco-2 cells [9]; FIG. 2,gone by four hours
same,effect on the citrate-induced reduction in baseline TEER,"Caco-2 cells [9]; FIG. 2, noticeable at two hours",prevented
same,solubility in water,Solubility in water,approximately 1 gram in 100 mL
"CCCCCCCCCCCCC/C=C/[C@@H](O)[C@@H](N)COP(=O)(O)O [S1P, sphingosine-1-phosphate]",effect on tightness of existing tight junctions,cultured enterocytes,increases
